# Data from patent EP3031809A1, “2-phenyl-7,7a-dihydro-3aH-pyran[3,4-d]oxazol-6(4H)-ones” (CONSEJO SUPERIOR DE INVESTIGACIONES CIENTIFICAS, priority 2014, dated 2016).
# Experiments:
# BT-474 = assay: Cell viability (cytotoxicity) assay with MTT; type: cell-based; settings: for TOXICITY 1uM BT-474 (% viab. approx .): approximate viability percentage
# Experimental: (§1) In order to determine the toxicity of the compound, cell viability assays were performed with MTT on breast tumour lines MCF-7, BT-474 and MDA-MB-436. […] The fact that cell viability was not affected at a high concentration reflects the low toxicity of the compound at the dose required for its effectiveness in functional assays.
# MCF-7 [1] = assay: Cell viability (cytotoxicity) assay with MTT; type: cell-based; settings: for TOXICITY 1uM MCF-7 (% viab. approx .): approximate viability percentage
# Experimental: as §1
# MCF-7 [2] = assay: Sphere test (formation of tumour mammospheres); type: cell-based; parameters: ACTIVITY IN SPHERE TEST % sphere formation MCF-7: concentration or dose not given beside the values; settings: for ACTIVITY IN SPHERE TEST % sphere formation MCF-7: MCF-7 mammospheres, 7 days in suspension culture
# Excerpt: (§2) The formation of spheres derived from breast tumours has been described as an effective method for enrichment of cell cultures in CSCs because of the higher ability of cells derived from these culture in generating tumours in vivo when transplanted in immunocompromised mice (Ponti D, et al., (2005) Cancer Res 65(13):5506-11, 34). A directly proportional relationship is therefore established between the percentage of the CSCs subpopulation in the culture and the ability to form spheres. Tumour cell lines growing in suspension are used in these tests in order to enrich the culture in tumour stem cells. CSCs are the only cells capable of proliferating in these conditions, giving rise to structures named spheres. In fact, the cells that grow in suspension acquire the properties of tumour stem cells and are used in the assays used in this patent for identifying drugs effective against them. In principle, compounds that affect tumour stem cells should slow their growth and potentially cause their death. This assay is tuned for breast cancer cell lines according to Leis, O., et al (2012), Oncogene, 31, 1354-1365. Cells are seeded at a density of 1,000 cells/mL on 6-well plates, previously treated with poly-HEMA (poly(2-hydroxyethyl methacrylate)), Sigma-Aldrich) to prevent the cells adhering to the plastic of the plate. A DMEM high glucose medium supplemented with F12 (Nutrient Mixture F-12 HAM, Sigma), B27 (B27 Supplement 50X, Gibco 17504-044) and growth factors, EGF and bFGF is used for culture. Methylcellulose at a final concentration of 0.5% was added to increase the viscosity of the culture medium. Cells were incubated for 7 days at 37° C, adding growth factors (20 ng/mL of each factor), every two days and counted under a microscope.
# MDA-MB-436 [3] = assay: Sphere test (formation of tumour mammospheres); type: cell-based; settings: for ACTIVITY IN SPHERE TEST % sphere formation MDA-MB-436: MDA-MB-436 mammospheres, 7 days in suspension culture
# Excerpt: as §2
# BT474 = assay: Sphere test (formation of tumour mammospheres); type: cell-based; parameters: ACTIVITY IN SPHERE TEST % sphere formation BT474: concentration or dose not given beside the values; settings: for ACTIVITY IN SPHERE TEST % sphere formation BT474: BT474 mammospheres, 7 days in suspension culture
# Excerpt: as §2
# HIF = assay: HRE-LUC test (9XHRE-LUC luciferase reporter of HIF activity in a breast tumour line); type: cell-based, human; settings: for inhibition at 5 µM: Homo sapiens, inhibition percentage, read-out: HIF HRE-LUC (% inhib. 5µM)
# Excerpt: In order to identify direct inhibitors of HIF activity, a breast tumour line MCF7 was first constructed containing the deoxyribonucleic acid sequences (DNA) of the region located between the positions -985 and -951 of the human vascular endothelium growth factor (hVEGF), repeated nine times (X9) and fused to the luciferase reporter gene (LUC) (Moreno-Manzano V, et al (2010) JBC 285 (2) 1333-1342). This plasmid called 9XHRE-LUC, kindly given by Dr Manuel Ortiz de Landazuri of the La Princesa Hospital of Madrid, was prepared using a commercial kit (Endofree Maxi-Prep; Qiagen, Inc., Valencia, CA). Transfections were performed with Lipofectamine (Invitrogen) according to the manufacturer's instructions.
# SOX-2 = assay: Reporter of the promoter region of enhancer R1 of SOX-2 in a transiently transfected breast tumour line; type: cell-based; settings: breast tumour line MDA_MB-436 / HRE9X-LUC; cells cultivated in suspension; Fig. 2
# Excerpt: In order to identify whether the direct inhibitors of mammosphere formation and HIF activity inhibited the transcriptional activation of SOX2, reported in breast cancer CSCs (Leis, O., et al (2012), Oncogene, 31, 1354-1365), breast tumour lines were constructed, transiently transfected with the promoter region of enhancer R1 of SOX-2 by Lipofectamine (Invitrogen) according to the manufacturer's instructions. Their induction on cultivating the cells in suspension was compared and the inhibition of this activation was measured on treating the cells with the inhibitor IQM11PS04.
# MDA-MB-436 [4] = assay: Cell viability (cytotoxicity) assay with MTT; type: cell-based; settings: 1µM and tenfold higher dose
# Experimental: as §1
Structure (SMILES),TOXICITY 1uM BT-474 (% viab. approx .) (BT-474),TOXICITY 1uM MCF-7 (% viab. approx .) (MCF-7 [1]),ACTIVITY IN SPHERE TEST % sphere formation MCF-7 (MCF-7 [2]),ACTIVITY IN SPHERE TEST % sphere formation MDA-MB-436 (MDA-MB-436 [3]),ACTIVITY IN SPHERE TEST % sphere formation BT474 (BT474),inhibition at 5 µM (HIF),inhibition of the induction of SOX2 (expression of the promoter region of enhancer R1 of SOX-2) (SOX-2),"percentage of cell death in treated cultures (BT-474; 1µM and tenfold higher dose, BT-474)",percentage of cell death in treated cultures (MDA-MB-436 [4]),"percentage of cell death in treated cultures (MCF-7 [1]; 1µM and tenfold higher dose, MCF-7)","inhibitory ability in the formation of mammospheres (MCF-7 [2]; 1 µM added in the final stage of sphere formation, MCF7, versus DMSO)","inhibitory ability in the formation of mammospheres (MDA-MB-436 [3]; 1 µM added in the final stage of sphere formation, MDA-MB-436, versus DMSO)",action on HIF-2α (HIF; 1µM and tenfold higher dose),"inhibition in the expression of luciferase (HRE-LUC test) (HIF; increasing concentrations, Fig. 1)","inhibitory ability in the formation of mammospheres (BT474; 1 µM added in the final stage of sphere formation, BT474, versus DMSO)"
"O=C1CC2OC(c3cccc(OCCN4CCOCC4)c3)=NC2CO1 (stereo not shown) [IQM11PS06, 2-(3-(2-morpholinoethoxy)phenyl)-7,7a-dihydro-3aH-pyrano[3,4-d]oxazole-6(4H)-one]",86%,97%,20%,79%,27%,,,,,,,,,,
"COc1cccc(C2=NC3COC(=O)CC3O2)c1 (stereo not shown) [IQM11PS01, 2-(3-methoxyphenyl)-7,7a-dihydro-3aH-pyrano[3,4-d]oxazole-6(4H)-one]",97%,115%,0%,,2%,,,,,,,,,,
"CCCCCOc1cccc(C2=NC3COC(=O)CC3O2)c1 (stereo not shown) [IQM11PS05, 2-(3-pentyloxyphenyl)-7,7a-dihydro-3aH-pyrano[3,4-d]oxazole-6(4H)-one]",168%,92%,0%,,8%,96%,,,,,,,,,
"CCCOc1cccc(C2=NC3COC(=O)CC3O2)c1 (stereo not shown) [IQM11PS04, 2-(3-propoxyphenyl)-7,7a-dihydro-3aH-pyrano[3,4-d] oxazole-6(4H)-one]",89%,109%,0%,,1%,92%,significantly inhibits,did not cause a significant increase,did not cause a significant increase,did not cause a significant increase,significant inhibitory ability,significant inhibitory ability,significant action,significantly inhibits,significant inhibitory ability
"O=C1CC2OC(c3cc(OCc4ccccc4)cc(OCc4ccccc4)c3)=NC2CO1 (stereo not shown) [IQM11PS03, 2-(3,5-bis(benzyloxy)phenyl)-7,7a-dihydro-3aH-pyrano[3,4-d]oxazole-6(4H)-one]",97%,98%,0%,88%,12%,,,,,,,,,,
"COc1cc(OC)cc(C2=NC3COC(=O)CC3O2)c1 (stereo not shown) [IQM11PS02, 2-(3,5-dimethoxyphenyl)-7,7a-dihydro-3aH-pyrano[3,4-d]oxazole-6(4H)-one]",55%,99%,0%,,4%,,,,,,,,,,
